What was measured:
Type in all cases: physicochemical
[1] = Limiting solubility in phosphate buffer, measured in the presence of undissolved solid; conditions: 22°C; for Grenzlöslichkeit: pH 7,4, in the presence of undissolved solid
[2] = Hygroscopicity / water uptake on storage
Experimental: So nimmt es bei Temperaturen von 20 bzw. 30°C und einer relativen Luftfeuchtigkeit von 80 % bei der Lagerung kein Wasser auf (keine Umwandlung in das 1,5-Hydrat!).

Solubility in acetone = conditions: solvent acetone (for the 1,5-Hydrat also other lower ketones)

Structure (SMILES)	Grenzlöslichkeit [1]	Grenzlöslichkeit relative to the 1,5-Hydrat ([1]; pH 7,4, ratio versus the 1,5-Hydrat)	Hygroskopizität [2]	Wasseraufnahme bei der Lagerung ([2]; 20 or 30°C, relative humidity 80 %, storage)	Löslichkeit in Aceton (Solubility in acetone)
COc1ccnc(C[S+]([O-])c2nc3ccc(OC(F)F)cc3[nH]2)c1OC (stereo not shown) [Monohydrat, 5-Difluormethoxy-2-[(3,4-dimethoxy-2-pyridyl)methylsulfinyl]-1H-benzimidazol-Natriumsalz-monohydrat]	0.0013 mol/L	etwa doppelt so große	nicht hygroskopisch	kein Wasser	schwer löslich
COc1ccnc(C[S+]([O-])c2nc3ccc(OC(F)F)cc3[nH]2)c1OC (stereo not shown) [1,5-Hydrat, 5-Difluormethoxy-2-[(3,4-dimethoxy-2-pyridyl)methylsulfinyl]-1H-benzimidazol-Natriumsalz-1,5-hydrat, reference compound]	6,2 x 10^-4 mol/l	–	–	–	leichtlöslich
